Experimental data as given in paper PMC6099735, “Piplartine Analogues and Cytotoxic Evaluation against Glioblastoma” (Molecules : A Journal of Synthetic Chemistry and Natural …, 2018).
≈ marks a conversion by molar mass, not a printed value. Blank lines part the entries; values can stand above or below the compound they belong to.

Columns and labels:
U87MG cells [1] = assay: MTT cell viability assay, cytotoxic activity against proliferation of U87MG cells; assay type: cell-based, human; conditions: for IC50: Homo sapiens, U-87 MG, MTT assay, 48 h exposure, 0.78-50 μg/mL, mean ± SEM of four experiments
Method: To evaluate the cytotoxic potential of compounds 2–19 against human U87MG, glioblastoma cells were used with several concentrations (0 to 50 μg/mL). After 48 h of incubation, cell viability rates were established by MTT and LDH analysis. IC50 values of each analogue were determined due to observed cell viability results after MTT assay. All tested analogues led to inhibition of cellular proliferation rates as compared to untreated cells in a clear concentration and compound type dependent manners, as illustrated in Table 1 and Figure 2.
Human glioblastoma (GBM) cell line U87MG (American Type Culture Collection; Rockville, MD, USA) within passage number 15–20 were grown in an incubator at 37 °C in a humidified atmosphere of 5% CO2. They were grown in Eagle’s Minimal Essential Medium from Sigma-Aldrich (Saint Louis, MO, USA), supplemented with 10% fetal bovine serum (FBS) and 100 μg/mL of each of the following antibiotics: penicillin and streptomycin [66].
To examine the effects of compounds on cell viability, an MTT assay was performed. U87MG cells were seeded at 1 × 10^4 cells per well in 96-well plate and allowed to attach for 24 h. Then the cells were exposed to different concentrations of 2–19 (0.78, 1.56, 3.125, 6.25, 12.5, 25 and 50 μg/mL) for 48 h. All the compounds were dissolved in dimethyl sulfoxide (DMSO), and diluted in serum-free culture medium. After the incubation, a 3-(4,5-dimethylthiazol-2-yl)-2,5-diphenyltetrazolium bromide (MTT) solution was applied to cell cultures according to the manufacturer’s instructions (Cayman Chemical Company®, Ann Arbor, MI, USA). After 3 h of incubation, MTT-formazan crystals were dissolved in DMSO and absorbance was measured at 570 nm on a plate reader and compared with control, untreated cells. The half-maximal inhibitory concentration values (IC50) were determined by MTT assay performed in four replicates.

U87MG cells [2] = assay: Apoptosis detection by Hoechst 33,258 staining; assay type: cell-based, human; conditions: 48 h at IC50 concentration, compared with control group
Method: Cell apoptosis induced by compound 10 was examined by Hoechst 33,258 staining and observed under a fluorescence microscope at 400× magnification.
The control and formulation treated cells were incubated for 48 h and were cultured in six-well cell culture plates for 48 h. after incubation, the medium was removed and the cells were fixed with 4% paraformaldehyde in phosphate buffered saline at 4 °C for 30 min. Following the washing cells three times with phosphate-buffered saline (PBS). The cells were then stained with 1 μL Hoechst 33,258 (5 μg/mL; Sigma-Aldrich, Saint Louis, MO, USA) and incubated at room temperature in the dark for 5 min. Changes in nuclear morphology were visualized under a fluorescent microscope (excitation, 350 nm; emission, 460 nm; Leica® DM IL LED, Wetzlar, Germany).

U87MG cells [3] = assay: Total antioxidant capacity (TAC) assay; assay type: cell-based, human; conditions: 48 h, concentrations 0.78 and 50 μg/mL, compared with controls
Method: (§1) The total antioxidant capacity (TAC) and the total oxidant status (TOS) levels were evaluated in samples from treated and untreated cultures using colorimetric measurement methods.
(§2) The commercially available kits were purchased from (Rel Assay Diagnostics®, Gaziantep, Turkey) to estimate the level of TAS and TOS. As a summary, the cells were seeded at 10^6 cells/well in 48-well plates, treated with compound 10 as described above. After 48 h incubation, plasma samples of treated and untreated cultures were transferred to a new plate, mixed with reaction solution and incubate for 10 min at room temperature. After that, the absorbance was read spectrophotometrically and the level of TAS and TOS were calculated according to the given equation.

U87MG cells [4] = assay: Total oxidant status (TOS) assay; assay type: cell-based, human; conditions: 48 h, all the concentrations
Method: as §1, §2

U87MG cells [5] = assay: qRT-PCR gene expression, custom plate with 15 cancer pathway genes; assay type: cell-based, human; conditions: IC50 concentration, 48 h
Method: To find out the differences in the level of gene expression in U87MG cells exposed using compound 10, a custom plate with 15 different genes involved in cancer related pathways was used via qRT-PCR studies.
Total RNA was isolated from cultured cells using PureLink® RNA Mini Kit (Invitrogen, Carlsbad, MA, USA) following the instructions described by the manufacturer. For quantitative reverse-transcription polymerase chain reaction (qRT-PCR), RNA was reverse-transcribed to cDNA by using a High-Capacity cDNA Reverse Transcription kit (Applied Biosystems, Foster City, CA, USA) according to the manufacturer’s protocol. Real-time PCR analyses were performed using the resulting total cDNA on a TaqMan® custom plate (Applied Biosystems) designed with 15 different genes (EGFR, AKT1, AKT2, NFκB1, NFκB1A, NFκB2, PTEN, KRAS, PIK3CA, PIK3R1, TP53, RAF1, BRAF, DVL1, FOS). Results were normalized to the expression of 18SRNA. qRT-PCR and data collection were performed on 7500 Fast Real-Time PCR (Applied Biosystems). Data analyses were performed using the The Applied Biosystems 7500 Fast System SDS software (Foster City, CA, USA).

[6] = tested on: peripheral human whole blood (PHWB) cells; assay: Biosafety: MTT cytotoxicity on cultured blood cells; assay type: cell-based; conditions: 0.78 to 50 μg/mL
Method: (§3) To evaluate biosafety of 10, its cytotoxic and genotoxic potential were investigated on cultured peripheral human whole blood (PHWB) cells. Firstly, the cytotoxicity testing was performed by MTT and LDH assays. The human blood cells exposed to 0.78 to 50 μg/mL of 10. […] Afterwards, genotoxic potential was assessed by SCE testing and determination of 8-OH-dG.
(§4) Human peripheral blood cells were cultured in order to evaluate the biosafety of 10. To assess the cytotoxicity and genotoxicity potential of 10, MTT, LDH, Sister chromatid exchange (SCE) and 8-hydroxy-2′-deoxyguanosine assays were assessed on cultured blood cells.

[7] = tested on: peripheral human whole blood (PHWB) cells; assay: Biosafety: LDH cytotoxicity on cultured blood cells; assay type: cell-based; conditions: 0.78 to 50 μg/mL
Method: as §3, §4

[8] = tested on: peripheral human whole blood (PHWB) cells; assay: Sister chromatid exchange (SCE) testing; assay type: cell-based; conditions: 72 h, vs control group
Method: as §3
Peripheral blood samples were incubated with 10 (50 μg/mL) at 37 °C for 72 h in culture medium (PB-MAX Karyotyping Medium, Gibco®, Baecelona, Spain) with 5.0 mg/mL of phytohemagglutinin (Sigma Aldrich, Steinheim, Germany). 5-Bromodeoxyuridine (BrdU) (10 μg/mL) was added to cell cultures at initiation. At 1.5 h before harvesting, colcemid (0.5 μg/mL) were added to cells. Then cells were treated with a hypotonic solution (0.075 M KCl), followed by three times fixation step in methanol/acetic acid (3:1, v/v). Cell suspensions were dropped on slides and air-dried. Three days later, the slides were stained according to the fluorescence plus Giemsa (FPG) procedure. Slides were observed under a fluorescence microscope and scores were calculated as SCEs per cell.

[9] = tested on: BF16F10-Nex2 (murine melanoma); design: method as in PMID 25920262; conditions: MTT test; cited from earlier work
[10] = tested on: HeLa (human cervical carcinoma); design: method as in PMID 25920262; conditions: MTT test; cited from earlier work
[11] = tested on: HL-60 (human leukemic cell); design: method as in PMID 25920262; conditions: MTT test; cited from earlier work
[12] = significant = >0.5 fold change vs untreated

Compound: CCCCCCCCCCOC(=O)/C=C/c1cc(OC)c(OC)c(OC)c1 [Compound 7, (E)-Decyl-3-(3,4,5-trimethoxyphenyl)acrylate]
IC50 (U87MG cells [1]): 34.9 ± 0.54 µg/mL (≈ 92.3 µM) | melting point: 37 to 38 °C

Compound: COc1cc(/C=C/C(=O)OC(C)C)cc(OC)c1OC [Compound 9, (E)-Isopropyl 3-(3,4,5-Trimethoxyphenyl)acrylate]
IC50 (U87MG cells [1]): 81.43 ± 0.55 µg/mL (≈ 291 µM)

Compound: COc1cc(/C=C/C(=O)OCCc2ccc(C)cc2)cc(OC)c1OC [Compound 13, (E)-4-Methylphenethyl 3-(3,4,5-Trimethoxyphenyl)acrylate]
IC50 (U87MG cells [1]): 30.3 ± 0.35 µg/mL (≈ 85.1 µM)

Compound: COc1cc(/C=C/C(=O)OCCc2ccccc2)cc(OC)c1OC [Compound 12, (E)-Phenethyl 3-(3,4,5-trimethoxyphenyl)acrylate]
IC50 (U87MG cells [1]): 24.8 ± 0.37 µg/mL (≈ 72.4 µM)

Compound: CCCCOC(=O)/C=C/c1cc(OC)c(OC)c(OC)c1 [Compound 5, (E)-Butyl-3-(3,4,5-trimethoxyphenyl)acrylate]
IC50 (U87MG cells [1]): 57.9 ± 0.71 µg/mL (≈ 197 µM) | melting point: 74 to 75 °C

Compound: COc1cc(/C=C/C(=O)NCc2ccccc2)cc(OC)c1OC [Compound 15, (E)-N-Benzyl-3-(3,4,5-trimethoxyphenyl)acrylamide]
IC50 (U87MG cells [1]): 33.1 ± 0.41 µg/mL (≈ 101 µM)

Compound: COc1cc(/C=C/C(=O)OC(c2ccccc2)c2ccccc2)cc(OC)c1OC [Compound 10, (E)-Benzhydryl 3-(3,4,5-trimethoxyphenyl)acrylate]
cell viability / cellular proliferation rates (U87MG cells [1]; 0 to 50 μg/mL, 48 h, MTT and LDH analysis, compared to untreated cells): marked concentration-dependent inhibitory effect | IC50 (U87MG cells [1]): 2.58 ± 0.35 µg/mL (≈ 6.38 µM) | apoptosis (nuclear morphology, Hoechst 33,258 staining) (U87MG cells [2]): enhanced chromatin condensation and nuclear fragmentation were detected | total antioxidant capacity (TAC) levels (U87MG cells [3]): significant increase of TAC levels | total oxidant status (TOS) levels (U87MG cells [4]): did not change the TOS levels | gene expression of BRAF, DVL1, EGFR, FOS, KRAS, NF-ĸB1A, RAF1, PIK3CA and PIK3R1 (U87MG cells [5]; <0.5 fold change): slight and insignificant alterations | AKT1 gene expression (U87MG cells [5]; [12]): down-regulated | AKT2 gene expression (U87MG cells [5]; [12]): down-regulated | NF-ĸB1 gene expression (U87MG cells [5]; vs untreated): up-regulated | NF-ĸB2 gene expression (U87MG cells [5]; vs untreated): up-regulated | PTEN gene expression (U87MG cells [5]; vs untreated): up-regulated | TP53 gene expression (U87MG cells [5]; vs untreated): up-regulated | cytotoxicity on blood cells, cell proliferation (MTT assay) [6]: did not lead to any significant (p > 0.05) changes in cell proliferation | cytotoxicity on blood cells, cell proliferation (LDH assay) [7]: did not lead to any significant (p > 0.05) changes in cell proliferation | genotoxicity, frequencies of SCEs [8]: not significant differences in the frequencies of SCEs

Compound: CCCCCOC(=O)/C=C/c1cc(OC)c(OC)c(OC)c1 [Compound 6, (E)-Pentyl 3-(3,4,5-trimethoxyphenyl)acrylate]
IC50 (U87MG cells [1]): 31.7 ± 0.48 µg/mL (≈ 103 µM) | melting point: 105 to 106 °C

Compound: piplaroxide
cytotoxic activity [9]: moderate activity | cytotoxic activity [10]: moderate activity | cytotoxic activity [11]: moderate activity

Compound: CCCOC(=O)/C=C/c1cc(OC)c(OC)c(OC)c1 [Compound 4, (E)-Propyl-3-(3,4,5-trimethoxyphenyl)acrylate]
IC50 (U87MG cells [1]): 78.39 ± 0.69 µg/mL (≈ 280 µM)

Compound: CCOC(=O)/C=C/c1cc(OC)c(OC)c(OC)c1 [Compound 3, (E)-Ethyl-3-(3,4,5-trimethoxyphenyl)acrylate]
IC50 (U87MG cells [1]): 100 ± 1.12 µg/mL (≈ 376 µM)

Compound: CC(=O)O[C@H]1C(=O)[C@@]2(C)[C@H]([C@H](OC(=O)c3ccccc3)[C@]3(O)C[C@H](OC(=O)[C@H](O)[C@@H](NC(=O)c4ccccc4)c4ccccc4)C(C)=C1C3(C)C)[C@]1(OC(C)=O)CO[C@@H]1C[C@@H]2O [paclitaxel, reference compound]
IC50 (U87MG cells [1]): 2.12 µg/mL (≈ 2.48 µM)

Compound: COC(=O)/C=C/c1cc(OC)c(OC)c(OC)c1 [Compound 2, (E)-Methyl-3-(3,4,5-trimethoxyphenyl)acrylate]
IC50 (U87MG cells [1]): 85.13 ± 0.78 µg/mL (≈ 337 µM) | melting point: 135 to 136 °C

The next lines start with results.

melting point: 197 to 198 °C
Compound: CCN(CC)C(=O)/C=C/c1cc(OC)c(OC)c(OC)c1 [Compound 19, (E)-N,N-Diethyl-3-(3,4,5-trimethoxyphenyl)acrylamide]
IC50 (U87MG cells [1]): 36.1 ± 0.44 µg/mL (≈ 123 µM)

melting point: 203 to 205 °C
Compound: COc1cc(/C=C/C(=O)NCc2ccc(C)cc2)cc(OC)c1OC [Compound 16, (E)-N-(4-Methylbenzyl)-3-(3,4,5-trimethoxyphenyl)acrylamide]
IC50 (U87MG cells [1]): 22.7 ± 0.34 µg/mL (≈ 66.6 µM)

melting point: 145 to 146 °C
Compound: COc1cc(/C=C/C(=O)Oc2cc(C(C)C)ccc2C)cc(OC)c1OC [Compound 11, (E)-Carvacryl-3-(3,4,5-trimethoxyphenyl)acrylate]
IC50 (U87MG cells [1]): 26.7 ± 0.47 µg/mL (≈ 72.1 µM)

melting point: 225 to 226 °C
Compound: CCCCNC(=O)/C=C/c1cc(OC)c(OC)c(OC)c1 [Compound 14, (E)-N-Butyl-3-(3,4,5-trimethoxyphenyl)acrylamide]
IC50 (U87MG cells [1]): 13.2 ± 0.32 µg/mL (≈ 45 µM)

melting point: 60 to 62 °C
Compound: COCCOC(=O)/C=C/c1cc(OC)c(OC)c(OC)c1 [Compound 8, (E)-2-Methoxyethyl-3-(3,4,5-trimethoxyphenyl)acrylate]
IC50 (U87MG cells [1]): 50.1 ± 0.62 µg/mL (≈ 169 µM)

melting point: 225 to 226 °C
Compound: COc1ccc(CNC(=O)/C=C/c2cc(OC)c(OC)c(OC)c2)cc1 [Compound 17, (E)-N-(4-Methoxybenzyl)-3-(3,4,5-trimethoxyphenyl)acrylamide]
IC50 (U87MG cells [1]): 22.7 ± 0.39 µg/mL (≈ 63.4 µM)

melting point: 215 to 218 °C
Compound: COc1cc(/C=C/C(=O)NCc2ccc(Cl)cc2)cc(OC)c1OC [Compound 18, (E)-N-(4-Chlorobenzyl)-3-(3,4,5-trimethoxyphenyl)acrylamide]
IC50 (U87MG cells [1]): 43.4 ± 0.48 µg/mL (≈ 120 µM)
